Assays:
[1] = test system: CALU-1 (non-small cell lung carcinoma); experiment: Methyl-Tetrazolium viability assay, CALU-1; format: cell-based, human
From the text: (§1) Three different viability assays were chosen to complement each other and yielded results dependent on concentration and cell line: the Methyl Tetrazolium dye assay, the Sulforhodamine B fluorescent dye assay, and the Crystal Violet dye assay.
(§2) The Methyl-Tetrazolium dye assay measures the activity of enzymes in mitochondria. The dye precursor is taken up by cells, where it undergoes reduction to the purple formazan. It measures only the mitochondrial activity and, thus, it is not always a reliable indication of whether the cells themselves are alive or dead, since even a recently dead cell has […] enzyme activity in mitochondria. Intracellular glucose concentration, pH, and time before assay all affect the measurements.
(§3) The Methyl Tetrazolium, Sulforhodamine B, and Crystal Violet assays were used to assess cell viabilities. The incubation times were 24 hours, 48 hours, and 72 hours. The Nerium oleander extract Anvirzel™ (a hot water extract of oleander obtained from Salud Integral, Honduras) was tested in concentrations ranging from 0.01 ng/mL to 10 ng/mL.
(§4) Cells were detached by trypsinization (Trypsin-0.25% EDTA, Invitrogen, 25200-072) during the logarithmic phase of culture growth and plated in 96-well plates (18.000 cells/well) (Corning, Costar 359) in a final volume of 200 μl of medium per well. […] The absorbance was measured after 24 hours, 48 hours, and 72 hours of incubation.
(§5) For the Methyl-Tetrazolium assay, the dye (Sigma, M2128; 5 mg/mL, diluted in phosphate-buffered saline) was added to each well and plates were incubated for 3 hours at 37° C. After the end of the incubation period, the medium was discarded and the cells were rinsed with phosphate-buffered saline. Finally, the formazan crystals were dissolved in dimethylsulphoxide (Sigma, D4540).
(§6) The optical density of each plate was measured on a μQuant spectrophotometer and the data were analyzed with Gen5 software (μQuant Biomolecular Spectrophotometer MQX200 and Gen5™ Microplate Data Collection & Analysis software, BioTek® Instruments. Inc, April 2008). Absorbance was measured at 570 nm for all assays and a second wavelength was measured in order to subtract noise. For the Methyl-Tetrazolium assay this second wavelength was 630 nm and for the Sulforhodamine B and Crystal Violet assays it was 690 nm.

[2] = test system: HT55 (colorectal cancer); experiment: Methyl-Tetrazolium viability assay, HT55; format: cell-based, human; parameters: key: absorbance (optical density) at 570 nm, second wavelength subtracted
From the text: as §1, §2, §3, §4, §5, §6

N.N.[Cl][Pt][Cl] [cisplatin]
Average MTT 72 h ([1]; CALU-1 Run 2, 1 μg/ml CDDP): 0.021
Average MTT 24 h ([1]; CALU-1 Run 2, 10 μg/ml CDDP): 0.056
Average MTT 48 h ([1]; CALU-1 Run 2, 10 μg/ml CDDP): 0.019
Average MTT 72 h ([1]; CALU-1 Run 2, 10 μg/ml CDDP): 0.015
Average MTT 24 h ([1]; CALU-1 Run 2, 100 μg/ml CDDP): 0.035
Average MTT 48 h ([1]; CALU-1 Run 2, 100 μg/ml CDDP): 0.016
Average MTT 72 h ([1]; CALU-1 Run 2, 100 μg/ml CDDP): 0.018
Average MTT 24 h ([1]; CALU-1 Run 3, 0.1 μg/ml CDDP, 24 h): 0.178
Average MTT 48 h ([1]; CALU-1 Run 3, 0.1 μg/ml CDDP, 48 h): 0.281
Average MTT 72 h ([1]; CALU-1 Run 3, 0.1 μg/ml CDDP, 72 h): 0.295
Average MTT 24 h ([1]; CALU-1 Run 3, 1 μg/ml CDDP, 24 h): 0.029
Average MTT 48 h ([1]; CALU-1 Run 3, 1 μg/ml CDDP, 48 h): 0.033
Average MTT 72 h ([1]; CALU-1 Run 3, 1 μg/ml CDDP, 72 h): 0.031
Average MTT 24 h ([1]; CALU-1 Run 3, 10 μg/ml CDDP, 24 h): 0.057
Average MTT 48 h ([1]; CALU-1 Run 3, 10 μg/ml CDDP, 48 h): 0.025
Average MTT 72 h ([1]; CALU-1 Run 3, 10 μg/ml CDDP, 72 h): 0.022
Average MTT 24 h ([1]; CALU-1 Run 3, 100 μg/ml CDDP, 24 h): 0.028
Average MTT 48 h ([1]; CALU-1 Run 3, 100 μg/ml CDDP, 48 h): 0.026
Average MTT 72 h ([1]; CALU-1 Run 3, 100 μg/ml CDDP, 72 h): 0.002
MTT Average ([2]; HT55, Run 1, 24 h, 0.1 μg/ml CDDP): 0.096
MTT Average ([2]; HT55, Run 1, 24 h, 1 μg/ml CDDP): 0.02
MTT Average ([2]; HT55, Run 1, 24 h, 10 μg/ml CDDP): 0.054
MTT Average ([2]; HT55, Run 1, 24 h, 100 μg/ml CDDP): 0.019
MTT Average ([2]; HT55, Run 1, 48 h, 0.1 μg/ml CDDP): 0.177
MTT Average ([2]; HT55, Run 1, 48 h, 1 μg/ml CDDP): 0.015
MTT Average ([2]; HT55, Run 1, 48 h, 10 μg/ml CDDP): 0.03
MTT Average ([2]; HT55, Run 1, 48 h, 100 μg/ml CDDP): 0.012
MTT Average ([2]; HT55, Run 1, 72 h, 0.1 μg/ml CDDP): 0.315
MTT Average ([2]; HT55, Run 1, 72 h, 1 μg/ml CDDP): 0.025
MTT Average ([2]; HT55, Run 1, 72 h, 10 μg/ml CDDP): 0.026
MTT Average ([2]; HT55, Run 1, 72 h, 100 μg/ml CDDP): 0.017
MTT Average ([2]; HT55 Run 2, 24 h, 0.1 μg/ml CDDP): 0.215
MTT Average ([2]; HT55 Run 2, 24 h, 1 μg/ml CDDP): 0.023
MTT Average ([2]; HT55 Run 2, 24 h, 10 μg/ml CDDP): 0.053
MTT Average ([2]; HT55 Run 2, 24 h, 100 μg/ml CDDP): 0.018
MTT Average ([2]; HT55 Run 2, 48 h, 0.1 μg/ml CDDP): 0.381
MTT Average ([2]; HT55 Run 2, 48 h, 1 μg/ml CDDP): 0.028
MTT Average ([2]; HT55 Run 2, 48 h, 10 μg/ml CDDP): 0.031
MTT Average ([2]; HT55 Run 2, 48 h, 100 μg/ml CDDP): 0.025
MTT Average ([2]; HT55 Run 2, 72 h, 0.1 μg/ml CDDP): 0.488
MTT Average ([2]; HT55 Run 2, 72 h, 1 μg/ml CDDP): 0.032
MTT Average ([2]; HT55 Run 2, 72 h, 10 μg/ml CDDP): 0.028
MTT Average ([2]; HT55 Run 2, 72 h, 100 μg/ml CDDP): 0.021
MTT Average ([2]; HT55 Run 3, 24 h, 0.1 μg/ml CDDP): 0.205
MTT Average ([2]; HT55 Run 3, 24 h, 1 μg/ml CDDP): 0.035
MTT Average ([2]; HT55 Run 3, 24 h, 10 μg/ml CDDP): 0.206
MTT Average ([2]; HT55 Run 3, 24 h, 100 μg/ml CDDP): 0.028
MTT Average ([2]; HT55 Run 3, 48 h, 0.1 μg/ml CDDP): 0.331
MTT Average ([2]; HT55 Run 3, 48 h, 1 μg/ml CDDP): 0.04
MTT Average ([2]; HT55 Run 3, 48 h, 10 μg/ml CDDP): 0.361
MTT Average ([2]; HT55 Run 3, 48 h, 100 μg/ml CDDP): 0.038
MTT Average ([2]; HT55 Run 3, 72 h, 0.1 μg/ml CDDP): 0.359
MTT Average ([2]; HT55 Run 3, 72 h, 1 μg/ml CDDP): 0.032
MTT Average ([2]; HT55 Run 3, 72 h, 10 μg/ml CDDP): 0.353
MTT Average ([2]; HT55 Run 3, 72 h, 100 μg/ml CDDP): 0.031
